The source made the active and inactive calls. Bridge positions count the residues as written; N and C are the ends. Square brackets hold non-standard residues; d marks the D form. Peptide text beside a SMILES is read from it. NMeF = CN[C@@H](Cc1ccccc1)C(=O)O
Experiments:
Mus musculus [1] = test: Antinociceptive activity against Kunming mouse model of thermal-induced nociception assessed as prolongation of tail-flick latency period at 8.68 nmol/kg, sc in presence of nor-BNI at 1 mg/kg, sc measured up to 240 mins by tail-flick test; type: functional, organism-based; details: time min <=240
[2] = Toxicity in Kunming mouse assessed as effect on arterial bicarbonate level at 868.1 nmol/kg, po measured up to 30 mins by blood gas analyzer; type: organism-based; details: in vivo, 0.5 h
Mus musculus [3] = test: Antinociceptive activity against Kunming mouse model of thermal-induced nociception assessed as prolongation of tail-flick latency period at 8.68 nmol/kg, po in presence of NALM at 1 mg/kg, ip measured up to 240 mins by tail-flick test; type: functional, organism-based; details: time min <=240
Mus musculus [4] = test: Antinociceptive activity against sc dosed Kunming mouse model of thermal-induced nociception assessed as fold shift in duration of analgesic effect by tail-flick test relative to DN-9; type: functional
[5] = Cmax in Kunming mouse at 868.1 nmol/kg, iv measured up to 120 mins by LC-MS/MS analysis; type: ADME, organism-based; set-up: route intravenous, dose 868.1 nmol/kg, time <=120; details: in vivo
[6] = AUC (0 to infinity) in Kunming mouse at 868.1 nmol/kg, iv measured up to 120 mins by LC-MS/MS analysis; type: ADME, organism-based; set-up: route intravenous, dose 868.1 nmol/kg, time <=120; details: in vivo, 2 h
[7] = Toxicity in Kunming mouse assessed as effect on motor coordination at 86.8 to 868.1 nmol/kg, po measured after 10 to 40 mins by Rotarod test; type: organism-based; details: in vivo, dose lower 86.8 nmol/kg, time lower 10 min, dose upper 868.1 nmol/kg, time upper 40 min
Mus musculus [8] = test: Antinociceptive activity in Kunming mouse assessed as analgesic tolerance administered subcutaneously once daily for 8 days by tail flick test; type: functional, organism-based; details: time 8.0 day
[9] = Metabolic stability in mouse plasma assessed as degradation half life at 0.01 M measured up to 360 mins; type: ADME, cell-free
[10] = Tmax in Kunming mouse at 868.1 nmol/kg, po measured up to 120 mins by LC-MS/MS analysis; type: ADME, organism-based; details: in vivo
Mus musculus [11] = test: Antinociceptive activity against Kunming mouse model of thermal-induced nociception assessed as prolongation of tail-flick latency period at 8.68 nmol/kg, sc in presence of beta-FNA at 1 mg/kg, sc measured up to 240 mins by tail-flick test; type: functional, organism-based; details: time min <=240
[12] = Toxicity in Kunming mouse assessed as effect on locomotor activity at 86.8 to 868.1 nmol/kg, po measured for 150 mins by open field test; type: organism-based; details: in vivo, 2.5 h, dose 86.8-868.1 nmol/kg
Mus musculus [13] = test: Antinociceptive activity against Kunming mouse model of thermal-induced nociception assessed as prolongation of tail-flick latency period at 8.68 nmol/kg, sc in presence of Nal at 1 mg/kg, sc measured up to 240 mins by tail-flick test; type: functional, organism-based; details: time min <=240
[14] = target: Delta-type opioid receptor (Homo sapiens, UniProt P41143); test: Agonist activity at DOR (unknown origin) expressed in HEK293-A cells assessed as inhibition of forskolin-induced cAMP accumulation preincubated for 30 mins in presence of 3-isobutyl-1-methylxanthine followed by forskolin and compound addition by competitive PKA binding assay relative to control; type: functional, cell-based; details: filed as agonist
Sequence of Delta-type opioid receptor (P41143 whole entry): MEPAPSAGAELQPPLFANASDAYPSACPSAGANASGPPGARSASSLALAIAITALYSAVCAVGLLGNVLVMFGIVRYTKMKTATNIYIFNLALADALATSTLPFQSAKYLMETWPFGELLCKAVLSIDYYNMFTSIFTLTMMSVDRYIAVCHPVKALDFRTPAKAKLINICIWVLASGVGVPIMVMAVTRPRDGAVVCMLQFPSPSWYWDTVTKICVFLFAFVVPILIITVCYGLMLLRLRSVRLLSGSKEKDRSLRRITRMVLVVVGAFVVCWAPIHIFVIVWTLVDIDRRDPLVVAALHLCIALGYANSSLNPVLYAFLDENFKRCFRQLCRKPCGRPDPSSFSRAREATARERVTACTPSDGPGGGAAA

[15] = Toxicity in Kunming mouse assessed as effect on arterial partial pressure of oxygen at 868.1 nmol/kg, po measured up to 30 mins by blood gas analyzer; type: organism-based; details: in vivo, 0.5 h
Mus musculus [16] = test: Antinociceptive activity against po dosed Kunming mouse model of carrageenan-induced mechanical inflammatory pain assessed as reduction in paw withdrawl threshold measured up to 180 mins by Von Frey assay; type: functional; details: 3 h, time min <=180
[17] = Toxicity in Kunming mouse assessed as effect on arterial pH at 868.1 nmol/kg, po measured up to 30 mins by blood gas analyzer; type: organism-based; details: in vivo, 0.5 h
[18] = Toxicity in naloxone-induced withdrawal symptoms in Kunming mouse assessed as effect on jumping response at 17 to 870 nmol/kg, po for every 8 hrs followed by naloxone stimulation and measured for 3 days; type: organism-based; details: in vivo, 72 h, dose 17-870 nmol/kg, time 3 day
[19] = target: Neuropeptide FF receptor 2 (Homo sapiens, UniProt Q9Y5X5); test: Agonist activity at NPFF2R (unknown origin) expressed in HEK293-A cells assessed as inhibition of forskolin-induced cAMP accumulation preincubated for 30 mins in presence of 3-isobutyl-1-methylxanthine followed by forskolin and compound addition by competitive PKA binding assay; type: functional, cell-based; details: read-out: EC50
Sequence of Neuropeptide FF receptor 2 (Q9Y5X5 whole entry): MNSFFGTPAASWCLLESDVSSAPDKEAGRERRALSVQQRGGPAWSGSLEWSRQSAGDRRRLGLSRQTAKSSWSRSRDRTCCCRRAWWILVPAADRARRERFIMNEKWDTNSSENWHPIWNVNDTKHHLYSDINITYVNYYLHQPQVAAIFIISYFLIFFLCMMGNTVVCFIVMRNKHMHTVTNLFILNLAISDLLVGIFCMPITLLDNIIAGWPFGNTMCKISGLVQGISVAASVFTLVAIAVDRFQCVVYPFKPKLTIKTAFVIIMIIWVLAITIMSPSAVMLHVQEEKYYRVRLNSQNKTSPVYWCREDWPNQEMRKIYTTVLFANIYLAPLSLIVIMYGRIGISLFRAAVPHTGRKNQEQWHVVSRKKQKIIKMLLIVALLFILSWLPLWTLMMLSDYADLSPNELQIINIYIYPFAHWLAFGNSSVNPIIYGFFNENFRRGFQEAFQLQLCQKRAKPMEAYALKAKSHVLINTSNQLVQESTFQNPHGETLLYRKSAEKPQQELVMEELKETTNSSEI

[20] = Toxicity in Kunming mouse assessed as effect on conditioned place preference at 868.1 nmol/kg, po measured for 5 days; type: organism-based; details: in vivo, 120 h, time 5 day
[21] = Half life in Kunming mouse at 868.1 nmol/kg, po measured up to 120 mins by LC-MS/MS analysis; type: ADME, organism-based; details: in vivo
Mus musculus [22] = test: Antinociceptive activity against icv dosed Kunming mouse model of thermal-induced nociception assessed as prolongation of tail-flick latency period measured up to 240 mins by tail-flick test; type: functional; details: time min <=240
[23] = Toxicity in Kunming mouse assessed as inhibition of gastrointestinal transit at 868.1 nmol/kg, po in presence of RF9 at 10 mg/kg, ip measured after 30 mins by charcoal meal test; type: organism-based; details: in vivo, 0.5 h
Mus musculus [24] = test: Antinociceptive activity against Kunming mouse model of thermal-induced nociception assessed as prolongation of tail-flick latency period at 8.68 nmol/kg, sc in presence of NTI at 1 mg/kg, sc measured up to 240 mins by tail-flick test; type: functional, organism-based; details: time min <=240
Mus musculus [25] = test: Antinociceptive activity against po dosed Kunming mouse model of thermal-induced nociception assessed as prolongation of tail-flick latency period measured up to 240 mins by tail-flick test; type: functional; details: 4 h, time min <=240
[26] = target: Neuropeptide FF receptor 1 (Homo sapiens, UniProt Q9GZQ6); test: Agonist activity at NPFF1R (unknown origin) expressed in HEK293-A cells assessed as inhibition of forskolin-induced cAMP accumulation preincubated for 30 mins in presence of 3-isobutyl-1-methylxanthine followed by forskolin and compound addition by competitive PKA binding assay; type: functional, cell-based
Sequence of Neuropeptide FF receptor 1 (Q9GZQ6 whole entry): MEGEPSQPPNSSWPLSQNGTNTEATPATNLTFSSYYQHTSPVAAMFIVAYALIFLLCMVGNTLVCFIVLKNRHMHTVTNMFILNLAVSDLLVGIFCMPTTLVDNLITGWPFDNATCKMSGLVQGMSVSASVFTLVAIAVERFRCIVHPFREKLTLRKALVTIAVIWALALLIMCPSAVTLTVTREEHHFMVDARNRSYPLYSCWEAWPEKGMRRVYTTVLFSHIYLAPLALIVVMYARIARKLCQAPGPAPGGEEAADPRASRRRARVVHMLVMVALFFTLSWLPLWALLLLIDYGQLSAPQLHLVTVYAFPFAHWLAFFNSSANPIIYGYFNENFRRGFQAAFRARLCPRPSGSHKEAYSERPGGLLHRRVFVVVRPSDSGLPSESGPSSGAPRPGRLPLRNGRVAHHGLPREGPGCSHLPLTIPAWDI

Mus musculus [27] = test: Antinociceptive activity against Kunming mouse model of thermal-induced nociception assessed as maximum possible effect at 8.68 nmol/kg, po measured after 30 min by tail flick test relative to control; type: functional; details: 0.5 h
Mus musculus [28] = test: Antinociceptive activity against Kunming mouse model of thermal-induced nociception assessed as prolongation of tail-flick latency period at 2 pmol, icv in presence of NTI measured up to 240 mins by tail-flick test; type: functional, organism-based; details: time min <=240
Mus musculus [29] = test: Antinociceptive activity against Kunming mouse model of thermal-induced nociception assessed as prolongation of tail-flick latency period at 2 pmol, icv in presence of nor-BNI measured up to 240 mins by tail-flick test; type: functional, organism-based; details: time min <=240
Mus musculus [30] = test: Antinociception activity in po dosed Kunming mouse model of sciatic nerve CCI-induced neuropathic pain assessed as reduction in mechanical hypersensitivity by measuring reduction in paw withdrawl threshold measured up to 180 mins by Von Frey test; type: functional; details: 3 h, time min <=180
[31] = Toxicity in Kunming mouse assessed as effect on arterial partial pressure of carbon dioxide at 868.1 nmol/kg, po measured up to 30 mins by blood gas analyzer; type: organism-based; details: in vivo, 0.5 h
[32] = Apparent volume of distribution in Kunming mouse at 868.1 nmol/kg, iv measured up to 120 mins by LC-MS/MS analysis; type: ADME, organism-based; details: in vivo, read-out: Vd(app)

CN1C(=O)CNC(=O)[C@H](NC(=O)[C@@H](N)Cc2ccc(O)cc2)CCCCNC(=O)C[C@@H](C(=O)N2CCC[C@H]2C(=O)N[C@@H](CCC(N)=O)C(=O)N[C@@H](CCCNC(=N)N)C(=O)N[C@@H](Cc2ccccc2)C(N)=O)NC(=O)[C@@H]1Cc1ccccc1 (H-Y[dK]G[NMeF]DPQRF-NH2; lactam 2-5)
Activity (Mus musculus [1]): inactive | Activity [2]: Non-Toxic | Activity (Mus musculus [3]): inactive | fold change (FC) (Mus musculus [4]): 2.7 | Cmax [5]: 5070 ng/mL | AUC [6]: 33297.7 µg·min/L | Activity [7]: Non-Toxic | Activity (Mus musculus [8]): inactive | half-life at 10000 µM [9]: 45.4 min | Tmax [10]: 1 min | Activity (Mus musculus [11]): inactive | Activity [12]: Non-Toxic | Activity (Mus musculus [13]): inactive | Emax [14]: 56.1% | Activity [15]: Non-Toxic | ED50 (Mus musculus [16]): 0.00344 µmol/kg | Activity [17]: Non-Toxic | Activity [18]: Non-Toxic | EC50 [19]: 49.8 nM | Activity [20]: Non-Toxic | half-life [21]: 188 min | ED50 (Mus musculus [22]): 0.63 pmol | Activity [23]: Non-Toxic | Activity (Mus musculus [24]): Active | ED50 (Mus musculus [25]): 0.00119 µmol/kg | EC50 [26]: 580 nM | MPE (Mus musculus [27]): 94.2% | Activity (Mus musculus [28]): Active | Activity (Mus musculus [29]): inactive | ED50 (Mus musculus [30]): 0.00334 µmol/kg | Activity [31]: Non-Toxic | Vd [32]: 1.2 L/kg

From ChEMBL document CHEMBL5034023, “Development of Multifunctional and Orally Active Cyclic Peptide Agonists of Opioid/Neuropeptide FF Receptors that Produce Potent, Long-Lasting, and Peripherally Restricted Antinociception with Diminished Side Effects” (J Med Chem, 2021)
